Experiment [1] deals with T1, G6PDH (glucose-6-phosphate dehydrogenase) (Rattus norvegicus, UniProt P05370).
T1 construct: gene G6pdx; native cytosolic enzyme in soluble lysate supernatant of primary astrocyte-rich cultures; not purified
Briefly: NADPH absorbance at […] nm in astrocyte lysate. It is filed as biochemical. The following applies: 3.3 mM G6P, 0.2 mM NADP+, 6.3 mM MgCl2, 5 mM maleimide, pH 7.5, room temperature; read-out: half-maximal inhibition.

Experiment [2] deals with T2, 6PGDH (6-phosphogluconate dehydrogenase) (Rattus norvegicus, UniProt P85968).
T2 construct: gene Pgd; native cytosolic enzyme in soluble lysate supernatant of primary astrocyte-rich cultures; not purified
T2 sequence (P85968 2-483): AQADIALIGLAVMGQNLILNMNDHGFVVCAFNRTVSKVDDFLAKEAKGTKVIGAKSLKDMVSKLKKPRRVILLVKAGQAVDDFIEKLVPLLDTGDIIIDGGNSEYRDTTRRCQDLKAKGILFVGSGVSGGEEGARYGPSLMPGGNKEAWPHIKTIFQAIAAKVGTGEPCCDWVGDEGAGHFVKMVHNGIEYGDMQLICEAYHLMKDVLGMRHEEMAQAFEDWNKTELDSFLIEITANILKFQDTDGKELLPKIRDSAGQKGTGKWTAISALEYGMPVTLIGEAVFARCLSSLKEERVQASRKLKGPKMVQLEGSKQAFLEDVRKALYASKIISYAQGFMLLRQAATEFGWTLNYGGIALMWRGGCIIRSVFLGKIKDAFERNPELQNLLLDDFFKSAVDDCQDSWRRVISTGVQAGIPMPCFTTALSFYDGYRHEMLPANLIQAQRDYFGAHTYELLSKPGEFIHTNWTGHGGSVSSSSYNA
Briefly: NADPH absorbance at […] nm in astrocyte lysate. It is filed as biochemical.

From article PMC10471714, “G6PDi-1 is a Potent Inhibitor of G6PDH and of Pentose Phosphate pathway-dependent Metabolic Processes in Cultured Primary Astrocytes” (Neurochemical Research, 2023) come the findings set out here.

T1 sequence (P05370 2-515): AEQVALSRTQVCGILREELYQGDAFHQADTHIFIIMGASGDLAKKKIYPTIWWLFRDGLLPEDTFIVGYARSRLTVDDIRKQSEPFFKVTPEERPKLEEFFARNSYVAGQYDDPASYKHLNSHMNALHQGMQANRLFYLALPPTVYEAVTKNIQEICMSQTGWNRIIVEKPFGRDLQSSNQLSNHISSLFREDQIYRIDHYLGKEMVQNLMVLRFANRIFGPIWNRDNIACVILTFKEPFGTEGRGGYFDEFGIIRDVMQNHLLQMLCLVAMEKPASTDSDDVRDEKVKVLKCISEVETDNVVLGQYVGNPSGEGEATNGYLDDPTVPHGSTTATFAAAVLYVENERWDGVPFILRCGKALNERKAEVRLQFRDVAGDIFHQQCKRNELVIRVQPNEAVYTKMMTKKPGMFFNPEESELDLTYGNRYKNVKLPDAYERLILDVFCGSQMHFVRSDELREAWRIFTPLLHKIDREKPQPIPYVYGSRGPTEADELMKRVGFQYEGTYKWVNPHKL

Regarding `C[C@]12CC[C@H](O)CC1=CC[C@@H]1[C@@H]2CC[C@]2(C)C(=O)CC[C@@H]12` [DHEA], the IC50 in experiment [1] was determined as 9.2 ± 3.5 µM.
As a reminder, the inhibition is the change of the read-out against control, counted positive when it falls. A higher inhibition goes with a strong effect. `N#Cc1cc(Nc2ncc3c(n2)CCCCC3=O)cs1` [G6PDi-1] came in with an inhibition at 100 µM in experiment [2] of 15%.
